Values belong to the molecule of their own block, whether it stands above or below them.
Test system: 695427-040-R-J1-PDC complex spheroid viability
Assay: Anticancer human tumor 695427-040-R-J1-PDC patient-derived colon adenocarcinoma cell line growth inhibition [RAS]
Settings: for viability, T/C: stronger effect = lower value; for IC50: curve of first compound
Method in brief: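 Tumour cells grown as complex spheroids with HUVEC endothelial cells and mesenchymal stem cells, treated with RAS pathway inhibitor combinations. Each agent spans half-log steps from near clinical Cmax, or 10 microM where Cmax is unknown.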

[1] = second compound 0.000949 µM, first compound 0.0316 µM
[2] = second compound 0.000949 µM, first compound 0.1 µM
[3] = second compound 0.000949 µM, first compound 0.316 µM
[4] = second compound 0.000949 µM, first compound 1 µM
[5] = second compound 0.003 µM, first compound 0.0316 µM
[6] = second compound 0.003 µM, first compound 0.1 µM
[7] = second compound 0.003 µM, first compound 0.316 µM
[8] = second compound 0.003 µM, first compound 1 µM
[9] = second compound 0.00949 µM, first compound 0.0316 µM
[10] = second compound 0.00949 µM, first compound 0.1 µM
[11] = second compound 0.00949 µM, first compound 0.316 µM
[12] = second compound 0.00949 µM, first compound 1 µM
[13] = second compound 0.03 µM, first compound 0.0316 µM
[14] = second compound 0.03 µM, first compound 0.1 µM
[15] = second compound 0.03 µM, first compound 0.316 µM
[16] = second compound 0.03 µM, first compound 1 µM
[17] = second compound 0.0949 µM, first compound 0.0316 µM
[18] = second compound 0.0949 µM, first compound 0.1 µM
[19] = second compound 0.0949 µM, first compound 0.316 µM
[20] = second compound 0.0949 µM, first compound 1 µM
[21] = second compound 0.3 µM, first compound 0.0316 µM
[22] = second compound 0.3 µM, first compound 0.1 µM
[23] = second compound 0.3 µM, first compound 0.316 µM
[24] = second compound 0.3 µM, first compound 1 µM
[25] = second compound 0.000949 µM, first compound 0.00316 µM
[26] = second compound 0.000949 µM, first compound 0.01 µM
[27] = second compound 0.003 µM, first compound 0.00316 µM
[28] = second compound 0.003 µM, first compound 0.01 µM
[29] = second compound 0.00949 µM, first compound 0.00316 µM
[30] = second compound 0.00949 µM, first compound 0.01 µM
[31] = second compound 0.03 µM, first compound 0.00316 µM
[32] = second compound 0.03 µM, first compound 0.01 µM
[33] = second compound 0.0949 µM, first compound 0.00316 µM
[34] = second compound 0.0949 µM, first compound 0.01 µM
[35] = second compound 0.3 µM, first compound 0.00316 µM
[36] = second compound 0.3 µM, first compound 0.01 µM
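Further: viability read after seven days of drug exposure.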
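Wherever viability, T/C is given: 100% = DMSO vehicle control viability.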

Compound: CC(Nc1ccc2c(c1)OCCn1cc(N3C(=O)OCC3C(F)F)nc1-2)C(N)=O (stereo not given)
viability, T/C (compound 0.0316 µM): 89.9% [middle of 4 runs]
viability, T/C (compound 0.1 µM): 72.5% [middle of 4 runs]
viability, T/C (compound 0.316 µM): 73.7% [middle of 4 runs]
viability, T/C (compound 10 µM): 41.9% [middle of 4 runs]

IC50 (second compound 0.000949 µM): 1880 nM
IC50 (second compound 0.003 µM): 1810 nM
IC50 (second compound 0.00949 µM): 1800 nM
IC50 (second compound 0.03 µM): 1900 nM
IC50 (second compound 0.0949 µM): 1660 nM
IC50 (second compound 0.3 µM): 1460 nM
Compound: CCC(CC)c1cc(NC2CCC(N)C2)n2nccc2n1 (stereo not given) + CCn1c(-c2cccnc2C(C)OC)c2c3cc(ccc31)N1CCOC(CC(NC(=O)C(C(C)C)N(C)C(=O)C3(F)CCN(C(=O)C#CC(C)(C)N(C)C)CC3)C(=O)N3CCCC(N3)C(=O)OCC(C)(C)C2)C1
viability, T/C [1]: 82.4%
viability, T/C [2]: 104%
viability, T/C [3]: 100%
viability, T/C [4]: 94.6%
viability, T/C (second compound 0.000949 µM, first compound 3.16 µM): 13.2%
viability, T/C (second compound 0.000949 µM, first compound 10 µM): 12.6%
viability, T/C [5]: 106%
viability, T/C [6]: 88.4%
viability, T/C [7]: 100%
viability, T/C [8]: 81.5%
viability, T/C (second compound 0.003 µM, first compound 3.16 µM): 20.3%
viability, T/C (second compound 0.003 µM, first compound 10 µM): 9.28%
viability, T/C [9]: 82.2%
viability, T/C [10]: 82.4%
viability, T/C [11]: 111%
viability, T/C [12]: 87.9%
viability, T/C (second compound 0.00949 µM, first compound 3.16 µM): 13.3%
viability, T/C (second compound 0.00949 µM, first compound 10 µM): 10.4%
viability, T/C [13]: 86.7%
viability, T/C [14]: 90.8%
viability, T/C [15]: 97.6%
viability, T/C [16]: 90.5%
viability, T/C (second compound 0.03 µM, first compound 3.16 µM): 17.7%
viability, T/C (second compound 0.03 µM, first compound 10 µM): 12.2%
viability, T/C [17]: 89.2%
viability, T/C [18]: 83.1%
viability, T/C [19]: 86.8%
viability, T/C [20]: 78.8%
viability, T/C (second compound 0.0949 µM, first compound 3.16 µM): 13.3%
viability, T/C (second compound 0.0949 µM, first compound 10 µM): 11.5%
viability, T/C [21]: 85.3%
viability, T/C [22]: 77%
viability, T/C [23]: 85.2%
viability, T/C [24]: 68.3%
viability, T/C (second compound 0.3 µM, first compound 3.16 µM): 12.6%
viability, T/C (second compound 0.3 µM, first compound 10 µM): 11%

IC50 (second compound 0.000949 µM): 81.2 nM
IC50 (second compound 0.003 µM): 85.5 nM
IC50 (second compound 0.00949 µM): 80.3 nM
IC50 (second compound 0.03 µM): 67 nM
IC50 (second compound 0.0949 µM): 66.4 nM
IC50 (second compound 0.3 µM): 35.4 nM
Compound: O=C(c1ccc(F)c(F)c1Nc1ccc(I)cc1F)N1CC(O)([C@@H]2CCCCN2)C1 + CCn1c(-c2cccnc2C(C)OC)c2c3cc(ccc31)N1CCOC(CC(NC(=O)C(C(C)C)N(C)C(=O)C3(F)CCN(C(=O)C#CC(C)(C)N(C)C)CC3)C(=O)N3CCCC(N3)C(=O)OCC(C)(C)C2)C1
viability, T/C [25]: 71.6%
viability, T/C [26]: 85.1%
viability, T/C [1]: 71%
viability, T/C [2]: 44.4%
viability, T/C [3]: 19.4%
viability, T/C [4]: 9.33%
viability, T/C [27]: 91.1%
viability, T/C [28]: 88.8%
viability, T/C [5]: 66.6%
viability, T/C [6]: 51.4%
viability, T/C [7]: 17.6%
viability, T/C [8]: 6.84%
viability, T/C [29]: 88.6%
viability, T/C [30]: 67.5%
viability, T/C [9]: 69.9%
viability, T/C [10]: 48.1%
viability, T/C [11]: 22.3%
viability, T/C [12]: 9.42%
viability, T/C [31]: 105%
viability, T/C [32]: 80.2%
viability, T/C [13]: 66.3%
viability, T/C [14]: 42.9%
viability, T/C [15]: 22.1%
viability, T/C [16]: 7.71%
viability, T/C [33]: 81.5%
viability, T/C [34]: 84%
viability, T/C [17]: 60.6%
viability, T/C [18]: 43.1%
viability, T/C [19]: 20.8%
viability, T/C [20]: 7.03%
viability, T/C [35]: 73.4%
viability, T/C [36]: 65.5%
viability, T/C [21]: 47%
viability, T/C [22]: 42%
viability, T/C [23]: 19.2%
viability, T/C [24]: 6.79%

IC50 (second compound 0.000949 µM): > 1000 nM
IC50 (second compound 0.003 µM): > 1000 nM
IC50 (second compound 0.00949 µM): > 1000 nM
IC50 (second compound 0.03 µM): > 1000 nM
IC50 (second compound 0.0949 µM): > 1000 nM
IC50 (second compound 0.3 µM): > 1000 nM
Compound: C=CC(=O)N1CCN(c2nc(OCC3CCCN3C)nc3c(F)c(-c4nc(N)cc(C)c4C(F)(F)F)c(Cl)cc23)C(C)C1 (stereo not given) + CCn1c(-c2cccnc2C(C)OC)c2c3cc(ccc31)N1CCOC(CC(NC(=O)C(C(C)C)N(C)C(=O)C3(F)CCN(C(=O)C#CC(C)(C)N(C)C)CC3)C(=O)N3CCCC(N3)C(=O)OCC(C)(C)C2)C1
viability, T/C [25]: 113%
viability, T/C [26]: 102%
viability, T/C [1]: 76.5%
viability, T/C [2]: 75.5%
viability, T/C [3]: 95.3%
viability, T/C [4]: 93.1%
viability, T/C [27]: 109%
viability, T/C [28]: 98.4%
viability, T/C [5]: 94%
viability, T/C [6]: 77%
viability, T/C [7]: 99.4%
viability, T/C [8]: 106%
viability, T/C [29]: 104%
viability, T/C [30]: 116%
viability, T/C [9]: 85.1%
viability, T/C [10]: 80%
viability, T/C [11]: 105%
viability, T/C [12]: 95%
viability, T/C [31]: 97.1%
viability, T/C [32]: 104%
viability, T/C [13]: 85.2%
viability, T/C [14]: 75.9%
viability, T/C [15]: 100%
viability, T/C [16]: 108%
viability, T/C [33]: 96.9%
viability, T/C [34]: 101%
viability, T/C [17]: 107%
viability, T/C [18]: 84.4%
viability, T/C [19]: 102%
viability, T/C [20]: 107%
viability, T/C [35]: 84.2%
viability, T/C [36]: 86.4%
viability, T/C [21]: 89.1%
viability, T/C [22]: 88.8%
viability, T/C [23]: 88.7%
viability, T/C [24]: 78%
